# Several values for one entry are separate records, joined by “and”; a condition that tells them apart may be missing. Equal entries are not always repeated. Entries after “also recorded” stand apart in the source; their conditions may differ.
# Tested on: Culex spp.
# Assay: Mosquito repellency of 2-undecanone and 2-tridecanone, treated arm in cage (Example 6)
# Format: in vivo
# Settings: for No. landings: single replicates; for observed repellent / residual activity (words): observed up to 24 hours post-treatment; for overall repellent activity, comparison of the two compounds: 100%, 50% and 20% concentrations, 0 to 24 hours
# From the text: Cages. The same two mosquitoes cages described in Example 5 were used for this example. The cages were constructed using wood framing and fine mesh wire screen. The dimensions of each cage were 59 cm high×55 cm wide by 59 cm deep. A hinged access door was installed at the front of each chamber for insertion of the water-filled containers filled with mosquito pupae. Also present at the front of each chamber was a 9 cm diameter plastic tube (i.d.) for insertion of the arm of the investigator. The arm insertion tube was sealed with a rubber stopper when not in use.
# Mosquitoes and Mosquito Rearing. Mosquitoes (Culex spp.) were obtained (as pupae and larvae) from Carolina Biological Supply Co., Burlington, N.C., USA in two successive shipments, so as to provide a continuing long term supply of fresh insects. Following their arrival, the mosquitoes were divided into approximately equal numbers in multiple water-filled containers and placed in the two cages described above. The larval and pupal cultures were fed with insect rearing compound. In addition, the water was changed regularly by filtration to minimize contamination and prevent overcrowding. Continuous culturing made it possible to increase the mosquito numbers to more than 100 insects per cage.
# Test Compounds and Testing Schedule. Testing was done with two compounds, 2-undecanone, and 2-tridecanone, for repellent activity by treating one arm of the investigator with approximately 1 ml of the test solution. Following several minutes for solvent evaporation, the treated arm was inserted through the insertion tube for 5 minutes. The other arm was treated with isoprbpanol (control) or a different concentration of the compound, and inserted into the insertion tube of the adjacent chamber. Next, the behavior of the mosquitoes in response to the presence of the investigator's arms was noted. Mosquito behavior was recorded as 1) landing or attempting to land on the investigator's arm, or coming to rest on the wire screen immediately adjacent to the investigator's arm or hand, versus 2) dispersal away from the treated arm towards the opposite ends of the cage. The approximate number of mosquitoes present at the beginning of the observations was noted. For treatments with 2-undecanone, observations were made initially to confirm 100% repellent activity of the compound immediately after treatment but observations were not recorded. Recording of efficacy was delayed until 6 hours after treatment, and then repeated at 12 and 24 hours post-treatment. For treatment with 2-tridecanone, the observations commenced immediately after solvent drying; then, the observations were repeated (without re-treatment of the investigator's hand and arm) after 6 hours, 12 hours and 24 hours. Treatments were alternated between the different cages. […]
# 2-tridecanone was obtained as a solid. To prepare this compound for testing, it was subjected to gentle heating in a 37° C. water bath to liquefy it, and aliquots of the stock were diluted volume: volume with isopropanol to 50% concentration and 20% concentration. Sufficient pure compound was retained for direct application (undiluted).
# Tests were done at concentrations of 100%, 50%, and 20% for each of the two compounds, as well as 20% DEET, and the isopropanol control.
# Table 3 presents the efficacy found at the different time intervals for each of the compounds at the three different concentrations and for DEET. Efficacy was calculated according to the formula: [(no. landings/no. present in control)−(no. landings/no. present in experinental) divided by (no. landings/no. present in control)]×100.
# [1] = 20% concentration, 0 hours after treatment
# [2] = 20% concentration, 6 hours after treatment
# [3] = 20% concentration, 12 hours after treatment
# [4] = 20% concentration, 24 hours after treatment
# [5] = 50% concentration, 0 hours after treatment
# [6] = 50% concentration, 6 hours after treatment
# [7] = 50% concentration, 12 hours after treatment
# [8] = 50% concentration, 24 hours after treatment
# [9] = 100% concentration, 0 hours after treatment
# [10] = 100% concentration, 6 hours after treatment
# [11] = 100% concentration, 12 hours after treatment
# [12] = 100% concentration, 24 hours after treatment
# [13] = 50% concentration, 6 hours after treatment, listed as IBI-246
# [14] = 50% concentration, 12 hours after treatment, listed as IBI-246
# [15] = 50% concentration, 24 hours after treatment, listed as IBI-246
smiles,measurement,setting,value
"CCN(CC)C(=O)c1cccc(C)c1 [DEET, N,N-diethyl-meta-toluamide, reference compound]",Percent Efficacy Post-Treatment,"20% concentration, 0 hours",91.1%
same,"No. landings, Mean",[1],1.3
same,Percent = [(No. landings/No. present)] × 100,[1],1.3%
same,No. landings,[1],2 (2×) and 0
same,Percent Efficacy Post-Treatment,"20% concentration, 6 hours",63.9%
same,"No. landings, Mean",[2],5.7
same,Percent = [(No. landings/No. present)] × 100,[2],4.8%
same,No. landings,[2],10 and 4 and 3
same,Percent Efficacy Post-Treatment,"20% concentration, 12 hours",31.7%
same,"No. landings, Mean",[3],15.0
same,Percent = [(No. landings/No. present)] × 100,[3],11.4%
same,No. landings,[3],12 and 15 and 18
same,Percent Efficacy Post-Treatment,"20% concentration, 24 hours",16.8%
same,"No. landings, Mean",[4],13.0
same,Percent = [(No. landings/No. present)] × 100,[4],10.9%
same,No. landings,[4],14 (2×) and 11
same,observed repellent / residual activity (words),20% concentration,"strong immediate and residual activity for up to 6 hours, weak activity at 12 hours and none thereafter; also recorded: treatment, but no residual activity was observed at 12 or 24 hours post-treatment"
CCCCCCCCCCCC(C)=O [2-tridecanone],Percent Efficacy Post-Treatment,"20% concentration, 0 hours",1.5%^
same,"No. landings, Mean",[1],4.0
same,Percent = [(No. landings/No. present)] × 100,[1],14.4%
same,No. landings,[1],4 and 3 and 5
same,Percent Efficacy Post-Treatment,"20% concentration, 6 hours",0%
same,"No. landings, Mean",[2],4.7
same,Percent = [(No. landings/No. present)] × 100,[2],14.0%
same,No. landings,[2],3 and 4 and 7
same,Percent Efficacy Post-Treatment,"20% concentration, 12 hours",22.2%
same,"No. landings, Mean",[3],4.7
same,Percent = [(No. landings/No. present)] × 100,[3],13.0%
same,No. landings,[3],3 and 5 and 6
same,Percent Efficacy Post-Treatment,"20% concentration, 24 hours",0%
same,"No. landings, Mean",[4],5.7
same,Percent = [(No. landings/No. present)] × 100,[4],14.9%
same,No. landings,[4],5 and 6 (2×)
same,observed repellent / residual activity (words),20% concentration,repellant activity was not observed
same,observed repellent / residual activity (words),"20% concentration, listed as 2-Tridecanone",Comments: No residual repellent activity was observed.
same,Percent Efficacy Post-Treatment,"50% concentration, 0 hours",95.2%
same,"No. landings, Mean",[5],0.7
same,Percent = [(No. landings/No. present)] × 100,[5],0.7%
same,Percent = [(No. landings/No. present)] × 100,"50% concentration, 0 hours after treatment, listed as 2-Tridecanone",2.4%
same,No. landings,[5],0 and 1 (2×)
same,Percent Efficacy Post-Treatment,"50% concentration, 6 hours",67.7%
same,"No. landings, Mean",[6],1.3
same,Percent = [(No. landings/No. present)] × 100,[6],4.3%
same,Percent = [(No. landings/No. present)] × 100,"50% concentration, 6 hours after treatment, listed as 2-Tridecanone",4.3%
same,No. landings,[6],3 and 0 and 1
same,Percent Efficacy Post-Treatment,"50% concentration, 12 hours",0%
same,"No. landings, Mean",[7],5.7
same,Percent = [(No. landings/No. present)] × 100,[7],19.7%
same,No. landings,[7],7 and 4 and 6
same,Percent Efficacy Post-Treatment,"50% concentration, 24 hours",0%
same,"No. landings, Mean",[8],5.0
same,Percent = [(No. landings/No. present)] × 100,[8],18.7%
same,No. landings,[8],7 and 4 (2×)
same,observed repellent / residual activity (words),50% concentration,activity greatly diminished or was absent after 12 and 24 hours.
same,Percent Efficacy Post-Treatment,"100% concentration, 0 hours",87.7%
same,"No. landings, Mean",[9],1.3
same,Percent = [(No. landings/No. present)] × 100,[9],1.8%
same,Percent = [(No. landings/No. present)] × 100,"100% concentration, 0 hours after treatment, listed as 2-Tridecanone",1.8%
same,No. landings,[9],0 and 1 and 3
same,Percent Efficacy Post-Treatment,"100% concentration, 6 hours",18.1%
same,"No. landings, Mean",[10],9.7
same,Percent = [(No. landings/No. present)] × 100,[10],10.9%
same,No. landings,[10],9 and 10 (2×)
same,Percent Efficacy Post-Treatment,"100% concentration, 12 hours",41.9%
same,"No. landings, Mean",[11],10.3
same,Percent = [(No. landings/No. present)] × 100,[11],9.7%
same,No. landings,[11],16 and 7 and 8
same,Percent Efficacy Post-Treatment,"100% concentration, 24 hours",0%
same,"No. landings, Mean",[12],15.0
same,Percent = [(No. landings/No. present)] × 100,[12],13.3%
same,No. landings,[12],17 and 15 and 13
same,observed repellent / residual activity (words),100% concentration,Comments: The compound was highly repellent. A huge cloud of mosquitoes retreated
same,"overall repellent activity, comparison of the two compounds",,less effective as a repellent against mosquitoes than 2-undecanone
CCCCCCCCCC(C)=O [2-undecanone],Percent Efficacy Post-Treatment,"20% concentration, 0 hours",100%
same,Percent Efficacy Post-Treatment,"20% concentration, 6 hours",46.6%
same,"No. landings, Mean",[2],0.7
same,Percent = [(No. landings/No. present)] × 100,[2],2.5%
same,Percent = [(No. landings/No. present)] × 100,"20% concentration, 6 hours after treatment, listed as 2-Undecanone",7.1%
same,No. landings,[2],0 (2×) and 2
same,Percent Efficacy Post-Treatment,"20% concentration, 12 hours",0%
same,"No. landings, Mean",[3],5.0
same,Percent = [(No. landings/No. present)] × 100,[3],17.1%
same,Percent = [(No. landings/No. present)] × 100,"20% concentration, 12 hours after treatment, listed as 2-Undecanone",17.1%
same,No. landings,[3],5 and 6 and 4
same,Percent Efficacy Post-Treatment,"20% concentration, 24 hours",0%
same,"No. landings, Mean",[4],4.0
same,Percent = [(No. landings/No. present)] × 100,[4],13.4%
same,Percent = [(No. landings/No. present)] × 100,"20% concentration, 24 hours after treatment, listed as 2-Undecanone",13.8%
same,No. landings,[4],4
same,Percent Efficacy Post-Treatment,"50% concentration, 0 hours",100%
same,Percent Efficacy Post-Treatment,"50% concentration, 6 hours",83.5%
same,"No. landings, Mean",[6],1.3
same,Percent = [(No. landings/No. present)] × 100,[6],1.1%
same,Percent = [(No. landings/No. present)] × 100,[13],2.2%
same,No. landings,[13],0 (3×) and 1 and 3 and 4
same,Percent Efficacy Post-Treatment,"50% concentration, 12 hours",65.3%
same,"No. landings, Mean",[7],7.2
same,Percent = [(No. landings/No. present)] × 100,[7],5.8%
same,Percent = [(No. landings/No. present)] × 100,[14],5.8%
same,No. landings,[14],1 and 2 (2×) and 13 (2×) and 12
same,Percent Efficacy Post-Treatment,"50% concentration, 24 hours",56.5%
same,"No. landings, Mean",[8],7.5
same,Percent = [(No. landings/No. present)] × 100,[8],5.7%
same,Percent = [(No. landings/No. present)] × 100,[15],5.7%
same,No. landings,[15],3 and 2 (2×) and 11 (2×) and 16
same,Percent Efficacy Post-Treatment,"100% concentration, 0 hours",100%
same,Percent Efficacy Post-Treatment,"100% concentration, 6 hours",100%
same,"No. landings, Mean",[10],0
same,Percent = [(No. landings/No. present)] × 100,[10],0%
same,No. landings,[10],0
same,Percent Efficacy Post-Treatment,"100% concentration, 12 hours",48.5%
same,"No. landings, Mean",[11],1.7
same,Percent = [(No. landings/No. present)] × 100,[11],8.6%
same,Percent = [(No. landings/No. present)] × 100,"100% concentration, 12 hours after treatment, listed as 2-Undecanone",8.6%
same,No. landings,[11],3 and 1 (2×)
same,Percent Efficacy Post-Treatment,"100% concentration, 24 hours",0%
same,"No. landings, Mean",[12],3.0
same,Percent = [(No. landings/No. present)] × 100,[12],19.1%
same,No. landings,[12],3
same,observed repellent / residual activity (words),100% concentration,absent after 24 hours post-treatment
same,observed repellent / residual activity (words),"100% concentration, listed as 2-Undecanone","Comments: Strong avoidance response was still evident at 6 hours. Avoidance was much; also recorded: weaker after 12 hours and no obvious avoidance, no dispersal away from the treated"
same,"overall repellent activity, comparison of the two compounds",,greatest activity overall
